Results reported in patent publication US12012421B2, “Solid forms of [(1S)-1-[(2S,4R,5R)-5-(5-amino-2-oxo-thiazolo[4,5-d]pyrimidin-3-yl)-4-hydroxy-tetrahydrofuran-2-yl]propyl] acetate” (Hoffmann-La Roche Inc., priority 2018, dated 2024).
Like-named read-outs stand apart in the source and are kept apart here.

Columns and labels:
[1] = Physical stability of solid forms in stability chamber, solid form checked by XRPD; type: physicochemical; conditions: for Physical stability (solid form by XRPD compared with initial solid form): 40° C./75%-RH, 1 month; for Stability compared with Form Amorphous: comparison in words, accelerated storage 40° C./75%-RH
Protocol: 40 mg compound (I) in different solid forms were stored in a stability chamber with temperature and humidity controlled at 40° C. and 75%-RH, respectively. After 1 month, the samples were analyzed by XRPD to check their solid form and compared with their initial solid form.

[2] = Single dose PK (SDPK) study, oral suspension; type: in vivo, Wistar Han rat; conditions: for Cmax / Tmax: male, plasma, Wistar Han rat, n = 5; for Cmax: read-out: Cmax of Compound (I) (double prodrug) in plasma; for Tmax: read-out: Tmax of Compound (I) (double prodrug) in plasma
Protocol: Five male Wistar Han rats were administered a single oral dose of 100 or 200 mg/kg of compound (I) (either Form A or Form C). Drug was administered as a suspension in 2% klucel, 0.1% polysorbate 80 and 0.1% parabens in water. Samples were taken at various times up to 24 h and plasma was analysed for compound (I) (double prodrug), compound (Ia) (single prodrug) and compound (Ib) (single prodrug) and compound (III) (active Form).

[3] = Apparent solubility study in bio-relevant media; type: physicochemical; conditions: for Solubility: 25° C.; for Solubility / solubility at 24 h: 24 hours; for solubility at 24 h: 25 °C, thermodynamic from solid; for Apparent solubility compared with Form Amorphous: comparison in words
Protocol: Apparent solubility was determined by suspending 5 mg of compound (I) in different bio-relevant media including pH buffers, SGF, FaSSIF, and FeSSIF. The suspensions were equilibrated at 25° C. for 24 hours. The suspensions were then filtered through a 0.22 μm PVDF filter into a 2-mL HPLC vial. The quantitation of the filtrate was conducted by HPLC with reference to a standard solution.

[4] = Solid form conversion in aqueous compositions; type: physicochemical
Protocol: Form A as prepared in Example 10 was suspended in water to form a slurry at room temperature for 2 hours to afford Form B, then the solid was collected by filtration and dried under vacuum. Depending on the solvation status Form B can be a solvate, a hydrate or a polymorph of compound (I).

Q: For `CC[C@H](OC(C)=O)[C@@H]1C[C@@H](O)[C@H](n2c(=O)sc3cnc(N)nc32)O1` [Form A of compound (I), [(1S)-1-[(2S,4R,5R)-5-(5-amino-2-oxo-thiazolo[4,5-d]pyrimidin-3-yl)-4-hydroxy-tetrahydrofuran-2-yl]propyl] acetate], which “Physical stability (solid form by XRPD compared with initial solid form)” value ([1]; listed as Example 10, Form A of compound (I)) is on record?
A: Its value is “no solid form change”.

Q: What about the “Stability compared with Form Amorphous” value [1] of the same molecule?
A: Its value is “better stability”.

Q: And the “Conversion rate to the single prodrug in vivo” value ([2]; Form A at 100 mg/kg compared with Form C at 200 mg/kg, in words)?
A: Its value is “faster conversion rate”.

Q: What about the Cmax ([2]; PO 100 mg/kg) of the same molecule?
A: Its Cmax is 563 ng/mL.

Q: What about the Tmax ([2]; PO 100 mg/kg) of the same molecule?
A: Its Tmax is 90 min.

Q: What about the Solubility ([3]; FaSSIF, listed as Example 10, Form A of compound (I)) of the same molecule?
A: The Solubility was 6330 µg/mL.

Q: And the Solubility ([3]; FeSSIF, listed as Example 10, Form A of compound (I))?
A: Its Solubility is 7930 µg/mL.

Q: What about the Solubility ([3]; SGF, listed as Example 10, Form A of compound (I)) of the same molecule?
A: The Solubility was greater than 16360 µg/mL.

Q: What about the Solubility ([3]; pH1 buffer, listed as Example 10, Form A of compound (I)) of the same molecule?
A: The Solubility was greater than 16280 µg/mL.

Q: What about the Solubility ([3]; pH3 buffer, listed as Example 10, Form A of compound (I)) of the same molecule?
A: Its Solubility is 12870 µg/mL.

Q: What about the Solubility ([3]; pH5 buffer, listed as Example 10, Form A of compound (I)) of the same molecule?
A: Its Solubility is 6390 µg/mL.

Q: And the Solubility ([3]; pH7 buffer, listed as Example 10, Form A of compound (I))?
A: Its Solubility is 6240 µg/mL.

Q: And the Solubility ([3]; pH9 buffer, listed as Example 10, Form A of compound (I))?
A: The Solubility was 6380 µg/mL.

Q: Which results are given for `CC[C@H](OC(C)=O)[C@@H]1C[C@@H](O)[C@H](n2c(=O)sc3cnc(N)nc32)O1` [Form Amorphous of compound (I), [(1S)-1-[(2S,4R,5R)-5-(5-amino-2-oxo-thiazolo[4,5-d]pyrimidin-3-yl)-4-hydroxy-tetrahydrofuran-2-yl]propyl] acetate]?
A: Physical stability (solid form by XRPD compared with initial solid form) ([1]; listed as Example 1, Form Amorphous of compound (I)): solid form change; Tendency to form change ([1]; general finding in words): prone to crystallization; Solubility ([3]; FaSSIF, listed as Example 1, Form Amorphous of compound (I)): 6930 µg/mL; Solubility ([3]; FeSSIF, listed as Example 1, Form Amorphous of compound (I)): 7350 µg/mL; solubility at 24 h ([3]; SGF, simulated gastric fluid): > 10000 µg/mL; solubility at 24 h ([3]; pH 1 buffer, pH 1, simulated gastric fluid, pH1 buffer): > 10000 µg/mL; Solubility ([3]; pH3 buffer, listed as Example 1, Form Amorphous of compound (I)): 9570 µg/mL; Solubility ([3]; pH5 buffer, listed as Example 1, Form Amorphous of compound (I)): 3830 µg/mL; Solubility ([3]; pH7 buffer, listed as Example 1, Form Amorphous of compound (I)): 4050 µg/mL; Solubility ([3]; pH9 buffer, listed as Example 1, Form Amorphous of compound (I)): 5030 µg/mL

Q: Which “Solid form conversion / stability in aqueous environment” value [4] does the source give for `CC[C@H](OC(C)=O)[C@@H]1C[C@@H](O)[C@H](n2c(=O)sc3cnc(N)nc32)O1` [Form B of compound (I), [(1S)-1-[(2S,4R,5R)-5-(5-amino-2-oxo-thiazolo[4,5-d]pyrimidin-3-yl)-4-hydroxy-tetrahydrofuran-2-yl]propyl] acetate] here?
A: Its value is “better stability in aqueous environment”.

Q: What about the “Physical stability (solid form by XRPD compared with initial solid form)” value ([1]; listed as Example 11, Form B of compound (I)) of the same molecule?
A: Its value is “no solid form change”.

Q: And the “Stability compared with Form Amorphous” value [1]?
A: Its value is “better stability”.

Q: What about the Solubility ([3]; FaSSIF, listed as Example 11, Form B of compound (I)) of the same molecule?
A: Its Solubility is 3820 µg/mL.

Q: And the Solubility ([3]; FeSSIF, listed as Example 11, Form B of compound (I))?
A: The Solubility was 4130 µg/mL.

Q: And the Solubility ([3]; SGF, listed as Example 11, Form B of compound (I))?
A: The Solubility was greater than 10000 µg/mL.

Q: And the Solubility ([3]; pH1 buffer, listed as Example 11, Form B of compound (I))?
A: Its Solubility is greater than 10000 µg/mL.

Q: What about the Solubility ([3]; pH3 buffer, listed as Example 11, Form B of compound (I)) of the same molecule?
A: Its Solubility is 6920 µg/mL.

Q: And the Solubility ([3]; pH5 buffer, listed as Example 11, Form B of compound (I))?
A: Its Solubility is 3350 µg/mL.

Q: And the Solubility ([3]; pH7 buffer, listed as Example 11, Form B of compound (I))?
A: The Solubility was 3400 µg/mL.

Q: What about the Solubility ([3]; pH9 buffer, listed as Example 11, Form B of compound (I)) of the same molecule?
A: Its Solubility is 3550 µg/mL.

Q: Which results are given for `CC[C@H](OC(C)=O)[C@@H]1C[C@@H](O)[C@H](n2c(=O)sc3cnc(N)nc32)O1` [Form C of compound (I), [(1S)-1-[(2S,4R,5R)-5-(5-amino-2-oxo-thiazolo[4,5-d]pyrimidin-3-yl)-4-hydroxy-tetrahydrofuran-2-yl]propyl] acetate]?
A: Physical stability (solid form by XRPD compared with initial solid form) ([1]; listed as Example 2, Form C of compound (I)): no solid form change; Stability compared with Form Amorphous [1]: significantly improved stability; Stability compared with Form Amorphous ([1]; listed as Form C): better stability; Cmax ([2]; PO 200 mg/kg): 259 ng/mL; Tmax ([2]; PO 200 mg/kg): 19.8 min; Solubility ([3]; FaSSIF, listed as Example 2, Form C of compound (I)): 2190 µg/mL; Solubility ([3]; FeSSIF, listed as Example 2, Form C of compound (I)): 2780 µg/mL; Solubility ([3]; SGF, listed as Example 2, Form C of compound (I)): >10000 µg/mL; Apparent solubility compared with Form Amorphous [3]: comparable apparent solubility; Solubility ([3]; pH1 buffer, listed as Example 2, Form C of compound (I)): >10000 µg/mL; Solubility ([3]; pH3 buffer, listed as Example 2, Form C of compound (I)): 4980 µg/mL; Solubility ([3]; pH5 buffer, listed as Example 2, Form C of compound (I)): 2240 µg/mL; Solubility ([3]; pH7 buffer, listed as Example 2, Form C of compound (I)): 2190 µg/mL; Solubility ([3]; pH9 buffer, listed as Example 2, Form C of compound (I)): 2320 µg/mL

Q: Which results are given for `CC[C@H](OC(C)=O)[C@@H]1C[C@@H](O)[C@H](n2c(=O)sc3cnc(N)nc32)O1` [Form G of compound (I), [(1S)-1-[(2S,4R,5R)-5-(5-amino-2-oxo-thiazolo[4,5-d]pyrimidin-3-yl)-4-hydroxy-tetrahydrofuran-2-yl]propyl] acetate]?
A: Physical stability (solid form by XRPD compared with initial solid form) ([1]; listed as Example 12, Form G of compound (I)): no solid form change; Stability compared with Form Amorphous [1]: improved stability; Stability compared with Form Amorphous ([1]; listed as Form G): better stability; Solubility ([3]; FaSSIF, listed as Example 12, Form G of compound (I)): 2490 µg/mL; Solubility ([3]; FeSSIF, listed as Example 12, Form G of compound (I)): 2790 µg/mL; Solubility ([3]; SGF, listed as Example 12, Form G of compound (I)): >10000 µg/mL; Apparent solubility compared with Form Amorphous [3]: comparable apparent solubility; Solubility ([3]; pH1 buffer, listed as Example 12, Form G of compound (I)): >10000 µg/mL; Solubility ([3]; pH3 buffer, listed as Example 12, Form G of compound (I)): 6440 µg/mL; Solubility ([3]; pH5 buffer, listed as Example 12, Form G of compound (I)): 3750 µg/mL; Solubility ([3]; pH7 buffer, listed as Example 12, Form G of compound (I)): 3700 µg/mL; Solubility ([3]; pH9 buffer, listed as Example 12, Form G of compound (I)): 3640 µg/mL
